{"source": "patent US20060183677A1", "about": "“Novel exendin agonist formulations and methods of administration thereof” (priority 2002, published 2006)", "key": {"Sprague-Dawley rats": {"system": "Sprague-Dawley rats", "experiment": "Insulinotropic action during intravenous glucose challenge in rats (Example 5)", "assay_type": "in vivo", "details": "30 pmol/kg/min i.v."}, "diabetic db/db mice": {"system": "diabetic db/db mice", "experiment": "Glucose lowering in diabetic db/db mice (dose response)", "assay_type": "in vivo", "procedure": "C57BLKS/J-m-db/db mice, at least 3 months of age were utilized for the study. The mice were obtained from The Jackson Laboratory and allowed to acclimate for at least one week before use. Mice were housed in groups of ten at 22° C.±1° C. with a 12:12 light:dark cycle, with lights on at 6 a.m. All animals were deprived of food for 2 hours before taking baseline blood samples. Approximately 70 μl of blood was drawn from each mouse via eye puncture, after a light anesthesia with metophane. […] Blood samples were drawn again, using the same procedure, after exactly one hour from the injections, and plasma glucose concentrations were measured. For each animal, the % change in plasma value, from baseline value, was calculated and a dose dependent relationship was evaluated using Graphpad Prizm™ software."}, "humans": {"system": "humans", "details": "acute treatment; cited from earlier work"}}, "data": [{"substance": "GLP-1[7-36]NH2", "values": [{"measurement": "60-min glucose AUC", "setting": "Sprague-Dawley rats", "result": "1096 ± 68", "unit": "mM·min"}, {"measurement": "plasma glucose after glucose injection", "setting": "Sprague-Dawley rats; D-glucose […] i.v.", "result": 23.7, "unit": "mM"}, {"measurement": "increase of 60-min insulin AUC versus saline-treated rats", "setting": "Sprague-Dawley rats; n.s. versus saline", "result": 20, "unit": "%"}, {"measurement": "Glucose-lowering ED50", "setting": "diabetic db/db mice", "result": 20.6, "unit": "µg"}, {"measurement": "acute effect on insulin sensitivity", "setting": "humans", "result": "appears not to immediately alter insulin sensitivity"}]}]}
